Test results from patent US20230293348A1, “DYES FOR USE IN A METHOD OF PHOTOPORATION OF THE INNER LIMITING MEMBRANE” (UNIVERSITEIT GENT, priority 2020, published 2023).
“Also recorded” adds a separate entry of the source.

How the values were obtained:
[1] = tested on: retinal surface of bovine retinal explants (Müller cell endfeet, nerve fibers); experiment: Retinal surface imaging with Mitotracker Deep Red and Hoechst after ICG photoporation; conditions: ICG 0,1 mg/ml, 0,4 J/cm^2 laser
Description: FIG. 4: Images of the retinal surface after staining with Mitotracker and Hoechst. […] Scale bar = 25 µm.
Furthermore, a method was tested to look at the retinal surface in more detail, allowing to visualize several types of structures such as nerve fibers, blood vessels, and Müller cells (cell type located right underneath the ILM). To this end, intact retinal explants were stained with a dye mixture of Mitotracker Deep Red and Hoechst, which allows to identify these structures. […] Indeed, in untreated explants, the retinal surface was neatly organized: a mosaic of Müller cell endfeet intertwined with bundles of nerve fibers.

ILM of bovine explants = experiment: Retinal entry of 100 nm polystyrene nanoparticles (Fluospheres) after ICG-mediated ILM perforation; conditions: ICG 1 mg/ml, 0,4 J/cm^2 laser
Excerpt: FIG. 5: Images of cryosections of bovine explants stained for nuclei in the retina by Hoechst (indicated in grey - low contrast). […] Scale = 25 µm
It was further tested whether ICG-mediated ILM ablation allowed to deliver therapeutics to the retina.

human ILM [2] = experiment: Inherent affinity of free ICG for the ILM; format: binding; conditions: preliminary data
human ILM [3] = experiment: ILM ablation by ICG photoporation in human explants, cryosections stained for Collagen IV; conditions: 1 mg/ml ICG, 0,4 J/cm2 laser fluence
Description: FIG. 6: Images of cryosections of human explants stained for nuclei in the retina by Hoechst staining (indicated in grey - low contrast) and showing the ILM stained by antibodies against Collagen IV (indicated in white); scale = 25 µm. Top row: untreated; bottom row: treatment with 1 mg/ml ICG and 0,4 J/cm^2 laser fluence. Absence of the ILM is indicated by a dashed line.
Therefore, the approach was tested on human samples. Since the thickness of the ILM is also age dependent, we investigated human ILM ablation in younger and older patients. […] As illustrated in the top row, the ILM in untreated explants becomes gradually thicker with increasing age, which is an observation in accordance with literature (FIG. 6, untreated). Treated samples (bottom row) were treated with 1 mg/ml ICG and 0,4 J/cm2 laser fluence. Absence of the ILM is indicated by a dashed line.

[4] = tested on: ILM of bovine retinal explants; experiment: ILM perforation by ICG photoporation, cryosections stained for Collagen IV; conditions: ICG 1 mg/ml, 0,4 J/cm^2 800 nm 2 ps laser pulses
Excerpt: FIG. 2: Images of cryosections of conventional bovine explants stained for nuclei in the retina by Hoechst staining (indicated in grey - low contrast) and showing the ILM stained by antibodies against Collagen IV (indicated in white). […] The study aimed to perforate the ILM by photoporation. Thereto, a vital dye, in particular Indocyanine Green (ICG), was delivered to the ILM after which the retina was illuminated with a powerful but extremely short pulse of 800 nm laser light. Without being bound to theory, the absorbance of light by the ICG can result in the evaporation of the surrounding water, creating vapour nanobubbles (VNBs) which upon collapse can cause damage to neighbouring tissue such as in particular the ILM. To generate ILM perforation, an ICG solution (1 mg/ml) was applied on the ILM surface of bovine retinal explants followed by laser scanning of the tissue with 2 picosecond pulses.

CC1(C)C(/C=C/C=C/C=C/C=C2\N(CCCCS(=O)(=O)O)c3ccc4ccccc4c3C2(C)C)=[N+](CCCCS(=O)(=O)[O-])c2ccc3ccccc3c21 [ICG, Indocyanine Green]
retinal surface organization (Mitotracker and Hoechst staining) [1]: greatly disturbed; also recorded: way more disorganized | retinal entry of 100 nm polystyrene nanoparticles (ILM of bovine explants): high retinal uptake; also recorded: massive entry of the nanoparticles into the retina | inherent affinity for the human ILM versus the bovine ILM (human ILM [2]): remarkably higher than for the bovine ILM | ILM integrity on cryosections (human ILM [3]; human explant patient one): fragmented ILM | ILM integrity on cryosections (human ILM [3]; human explant patient three): completely absent | ILM integrity on cryosections (human ILM [3]; human explant patient two): completely absent | ILM integrity on cryosections [4]: ILM ablation; also recorded: most of the ILM was absent with only small parts remaining
